# Assay results published in patent US10208059B2, “Heterocyclic modulators of HIF activity for treatment of disease” (Board of Regents, University of Texas System, priority 2012, dated 2019).
# Structures can show the parent of a compound that is named as a salt.
# Test system: 293T-HRE-GFP-luc cells
# Experiment: Cell-based reporter assay for IC50 determinations
# Settings: hypoxia 6 hrs (1% O2), luminescence, read-out: IC50 Classification
# Method: Cell-Based Reporter Assay for IC50 Determinations
# 293T-HRE-GFP-luc cells were routinely maintained in DMEM media (high glucose version with GlutaMAX and HEPES, Gibco, catalog #10564) supplemented with 10% fetal bovine serum and 2 μg/mL puromycin (Invitrogen, catalog #A11138-03) using a humidified incubator (normoxia conditions consisting of 37° C., 5% CO2 and ambient O2).
# In preparation for the reporter assay, cells were harvested and resuspended in DMEM media (high glucose version with GlutaMAX and HEPES) supplemented with 10% fetal bovine serum. Cells were inoculated into 384-well white Culturplates (Perkin Elmer catalog #6007680) at a density of 12,000 cells/well in a volume of 30 μL. The microplates were incubated overnight (approximately 17-19 hours) at 37° C. with 5% CO2 and ambient O2. Stock solutions of the test compounds were prepared in DMSO (Sigma, Catalog #D2650) and serially diluted 1:3 using DMSO. Compounds were additionally diluted (1:50) with culturemedium and 10 μL were added per well to the Culturplate. Following a 30 min. incubation under normoxia conditions, the plates were incubated in hypoxia for 6 hrs. (37° C., 5% CO2 and 1% O2). Steadylite Plus (Perkin Elmer, catalog #6016751) was then added (40 μL/well), the plates were mixed on an orbital shaker at room temperature in the dark for 15 min., and luminescence was measured using an Envision plate reader (Perkin Elmer). IC50 values were calculated using a four-parameter logistic curve fit. Results are shown below in Table 2; ND indicates no data.
row,Compound,IC50 [nM]
1,"Cc1nc(-c2nc(-c3ccc(OC(F)(F)F)cc3)no2)nn1Cc1ccnc(N2CCNCC2)c1 [Example 1, 4-(4-((5-Methyl-3-(3-(4-(trifluoromethoxy)phenyl)-1,2,4-oxadiazol-5-yl)-1H-1,2,4-triazol-1-yl)methyl)pyridin-2-yl)piperazin-1-ium trifluoroacetate]",100 to 1000
2,Cc1nc(-c2ccc(-c3ccccc3)o2)nn1Cc1ccnc(N2CCN(C)CC2)c1 [Example 3],1000 to 10000
3,"FC(F)(F)Oc1ccc(-c2noc(-c3nc(-c4cccnc4)n(Cc4ccccc4)n3)n2)cc1 [Example 4, 3-(1-Benzyl-3-(3-(4-(trifluoromethoxy)phenyl)-1,2,4-oxadiazol-5-yl)-1H-1,2,4-triazol-5-yl)pyridin-1-ium trifluoroacetate]",< 100
4,"Cc1nc(-c2nnc(-c3ccccc3)o2)nn1Cc1ccnc(N2CCC(C)(C)CC2)c1 [Example 5, 2-(4,4-Dimethylpiperidin-1-yl)-4-((5-methyl-3-(5-phenyl-1,3,4-oxadiazol-2-yl)-1H-1,2,4-triazol-1-yl)methyl)pyridin-1-ium trifluoroacetate]",1000 to 10000
5,"Cc1nc(-c2nnc(-c3ccc(OC(F)(F)F)cc3)o2)nn1Cc1cccc(N2CCN(C)CC2)c1 [Example 6, 1-Methyl-4-(3-((5-methyl-3-(5-(4-(trifluoromethoxy)phenyl)-1,3,4-oxadiazol-2-yl)-1H-1,2,4-triazol-1-yl)methyl)phenyl)piperazin-1-ium trifluoroacetate]",< 100
6,"Cc1nc(-c2nnc(-c3ccc(OC(F)(F)F)cc3)o2)nn1Cc1ccnc(N2CCN(C)CC2)c1 [Example 7, 1-Methyl-4-(4-((5-methyl-3-(5-(4-(trifluoromethoxy)phenyl)-1,3,4-oxadiazol-2-yl)-1H-1,2,4-triazol-1-yl)methyl)pyridin-1-ium-2-yl)piperazin-1-ium trifluoroacetate]",100 to 1000
7,"Cc1nc(-c2nnc(-c3ccc(C(C)(C)C)cc3)o2)nn1Cc1cccc(N2CCN(C)CC2)c1 [Example 8, 2-(4-(tert-Butyl)phenyl)-5-(5-methyl-1-(3-(4-methylpiperazin-1-yl)benzyl)-1H-1,2,4-triazol-3-yl)-1,3,4-oxadiazole]",< 100
8,"Cc1nc(-c2nc(-c3ccc(C(C)(C)C)cc3)no2)nn1Cc1ccnc(N2CCN(C)CC2)c1 [Example 9, 3-(4-(tert-Butyl)phenyl)-5-(5-methyl-1-((2-(4-methylpiperazin-1-yl)pyridin-4-yl)methyl)-1H-1,2,4-triazol-3-yl)-1,2,4-oxadiazole]",< 100
9,"Cc1nc(-c2nc(-c3ccc(OC(F)(F)F)cc3)no2)nn1Cc1ccnc(N2CCOCC2)c1 [Example 10, 4-(4-((5-Methyl-3-(3-(4-(trifluoromethoxy)phenyl)-1,2,4-oxadiazol-5-yl)-1H-1,2,4-triazol-1-yl)methyl)pyridin-2-yl)morpholine]",< 100
10,"Cc1nc(-c2nc(-c3ccc(OC(F)(F)F)cc3)no2)nn1Cc1cccc(NCCN(C)C)c1 [Example 11, N,N-Dimethyl-2-((3-((5-methyl-3-(3-(4-(trifluoromethoxy)phenyl)-1,2,4-oxadiazol-5-yl)-1H-1,2,4-triazol-1-yl)methyl)phenyl)amino)ethanaminium trifluoroacetate]",1000 to 10000
11,"COC(=O)c1cccc(Cn2nc(-c3nc(-c4ccc(OC(F)(F)F)cc4)no3)nc2C)c1 [Example 12, Methyl 3-((5-methyl-3-(3-(4-(trifluoromethoxy)phenyl)-1,2,4-oxadiazol-5-yl)-1H-1,2,4-triazol-1-yl)methyl)benzoate]",< 100
12,"Cc1nc(-c2nc(-c3ccc(OC(F)(F)F)cc3)no2)nn1Cc1cccc(C(=O)N2CCN(C)CC2)c1 [Example 13, (3-((5-Methyl-3-(3-(4-(trifluoromethoxy)phenyl)-1,2,4-oxadiazol-5-yl)-1H-1,2,4-triazol-1-yl)methyl)phenyl)(4-methylpiperazin-1-yl)methanone]",< 100
13,"COCCCNC(=O)c1cccc(Cn2nc(-c3nc(-c4ccc(OC(F)(F)F)cc4)no3)nc2C)c1 [Example 14, N-(3-methoxypropyl)-3-((5-methyl-3-(3-(4-(trifluoromethoxy)phenyl)-1,2,4-oxadiazol-5-yl)-1H-1,2,4-triazol-1-yl)methyl)benzamide]",< 100
14,"Cc1ccc(Cn2nc(-c3nc(-c4ccc(OC(F)(F)F)cc4)no3)nc2C)cc1 [Example 15, 5-(5-Methyl-1-(4-methylbenzyl)-1H-1,2,4-triazol-3-yl)-3-(4-(trifluoromethoxy)phenyl)-1,2,4-oxadiazole]",< 100
15,"Cc1nc(-c2nc(-c3ccc(OC(F)(F)F)cc3)no2)nn1Cc1cn2ccccc2n1 [Example 16, 5-(1-(imidazo[1,2-a]pyridin-2-ylmethyl)-5-methyl-1H-1,2,4-triazol-3-yl)-3-(4-(trifluoromethoxy)phenyl)-1,2,4-oxadiazole]",100 to 1000
16,"Cc1nc(-c2nc(-c3ccc(OC(F)(F)F)cc3)no2)nn1Cc1cnc(Cl)s1 [Example 17, 5-(1-((2-Chlorothiazol-5-yl)methyl)-5-methyl-1H-1,2,4-triazol-3-yl)-3-(4-(trifluoromethoxy)phenyl)-1,2,4-oxadiazole]",1000 to 10000
17,"Cc1nc(-c2nc(-c3ccc(OC(F)(F)F)cc3)no2)nn1Cc1cnc(N2CCOCC2)s1 [Example 18, 4-(5-((5-Methyl-3-(3-(4-(trifluoromethoxy)phenyl)-1,2,4-oxadiazol-5-yl)-1H-1,2,4-triazol-1-yl)methyl)thiazol-2-yl)morpholine]",1000 to 10000
18,"Cc1nc(-c2nc(-c3ccc(OC(F)(F)F)cc3)no2)nn1Cc1ccnc(Cl)n1 [Example 19, 5-(1-((2-Chloropyrimidin-4-yl)methyl)-5-methyl-1H-1,2,4-triazol-3-yl)-3-(4-(trifluoromethoxy)phenyl)-1,2,4-oxadiazole]",1000 to 10000
19,"Cc1nc(-c2nc(-c3ccc(OC(F)(F)F)cc3)no2)nn1Cc1ccnc(N2CCN(C)CC2)n1 [Example 20, 5-(5-Methyl-1-((2-(4-methylpiperazin-1-yl)pyrimidin-4-yl)methyl)-1H-1,2,4-triazol-3-yl)-3-(4-(trifluoromethoxy)phenyl)-1,2,4-oxadiazole]",< 100
20,"Cc1nc(-c2nc(-c3ccc(S(C)(=O)=O)cc3)no2)nn1Cc1ccnc(N2CCN(C)CC2)c1 [Example 21, 1-Methyl-4-(4-((5-methyl-3-(3-(4-(methylsulfonyl)phenyl)-1,2,4-oxadiazol-5-yl)-1H-1,2,4-triazol-1-yl)methyl)pyridin-1-ium-2-yl)piperazin-1-ium bis-trifluoroacetate]",1000 to 10000
21,"Cc1ccc(-c2noc(-c3nc(C)n(Cc4ccnc(N5CCN(C)CC5)c4)n3)n2)cc1 [Example 22, 1-Methyl-4-(4-((5-methyl-3-(3-(p-tolyl)-1,2,4-oxadiazol-5-yl)-1H-1,2,4-triazol-1-yl)methyl)pyridin-1-ium-2-yl)piperazin-1-ium bis-trifluoroacetate]",100 to 1000
22,"Cc1nc(-c2nc(-c3ccc(OC(F)F)cc3)no2)nn1Cc1ccnc(N2CCN(C)CC2)c1 [Example 23, 4-(4-((3-(3-(4-(Difluoromethoxy)phenyl)-1,2,4-oxadiazol-5-yl)-5-methyl-1H-1,2,4-triazol-1-yl)methyl)pyridin-1-ium-2-yl)-1-methylpiperazin-1-ium bis-trifluoroacetate]",100 to 1000
23,"Cc1nc(-c2nc(-c3ccc(OC(F)(F)F)cc3)no2)nn1Cc1ccccc1 [Example 24, 5-(1-Benzyl-5-methyl-1H-1,2,4-triazol-3-yl)-3-(4-(trifluoromethoxy)phenyl)-1,2,4-oxadiazole]",100 to 1000
24,"Cc1nc(-c2nc(-c3ccc(OC(F)(F)F)cc3)no2)nn1Cc1cccc(N2CCN(C)CC2)c1 [Example 25, 1-methyl-4-(3-((5-methyl-3-(3-(4-(trifluoromethoxy)phenyl)-1,2,4-oxadiazol-5-yl)-1H-1,2,4-triazol-1-yl)methyl)phenyl)piperazin-1-ium trifluoroacetate]",< 100
25,"Cc1nc(-c2nc(-c3ccc(OC(F)(F)F)cc3)no2)nn1Cc1ccnc(N2CCC(O)CC2)c1 [Example 26, 1-(4-((5-Methyl-3-(3-(4-(trifluoromethoxy)phenyl)-1,2,4-oxadiazol-5-yl)-1H-1,2,4-triazol-1-yl)methyl)pyridin-2-yl)piperidin-4-ol]",< 100
26,"Cc1nc(-c2nc(-c3ccc(OC(F)(F)F)cc3)no2)nn1Cc1ccnc(N2CCC(C#N)CC2)c1 [Example 27, 1-(4-((5-Methyl-3-(3-(4-(trifluoromethoxy)phenyl)-1,2,4-oxadiazol-5-yl)-1H-1,2,4-triazol-1-yl)methyl)pyridin-2-yl)piperidine-4-carbonitrile]",< 100
27,"Cc1nc(-c2nc(-c3ccc(OC(F)(F)F)cc3)no2)nn1Cc1ccnc(N2CCCC2)c1 [Example 28, 5-(5-Methyl-1-((2-(pyrrolidin-1-yl)pyridin-4-yl)methyl)-1H-1,2,4-triazol-3-yl)-3-(4-(trifluoromethoxy)phenyl)-1,2,4-oxadiazole]",< 100
28,"Cc1nc(-c2nc(-c3ccccc3)no2)nn1Cc1ccnc(N2CCN(C)CC2)c1 [Example 29, 1-Methyl-4-(4-((5-methyl-3-(3-phenyl-1,2,4-oxadiazol-5-yl)-1H-1,2,4-triazol-1-yl)methyl)pyridin-1-ium-2-yl)piperazin-1-ium bis-trifluoroacetate]",1000 to 10000
